Tested on: pancreatic adenocarcinoma
Assay: Overall survival (OS) by baseline plasma analytes, CALGB 80303 gemcitabine +/- bevacizumab
Type: in vivo, human
Source text: Eligibility of patients evaluated in this correlative analysis was described previously (Kindler et al., J Clin Oncol 2010 28(22):3617-3622). Briefly, eligible patients had histologically- or cytologically-confirmed pancreatic adenocarcinoma not amenable to curative surgery. Measurable disease was not required. Prior chemotherapy for metastatic disease was not permitted. […] Prior radiation was allowed if it was completed at least 4 weeks prior to enrollment and there was disease outside the radiation port. Patients were required to be at least 18 years of age and have a life expectancy of at least 12 weeks. Written informed consent was obtained from all patients participating in this correlative analysis.
Gemcitabine (1,000 mg/m^2) was administered intravenously over 30 minutes on days 1, 8, and 15 of a 28-day cycle. […]
Patterns of expression were analyzed at baseline and were correlated with overall survival (OS) and progression free survival (PFS) using univariate Cox proportional hazard regression models and multivariate Cox models with leave-one-out cross validation. Spearman's rank correlation coefficients were calculated for all pairs of analytes. […]
The primary endpoint of interest will be overall survival (OS) with correlation to the blood analytes; however, progression-free survival (PFS) was evaluated. […]

bevacizumab: monoclonal antibody against VEGF
benefit from bevacizumab (overall survival) (VEGF-D above Q1, more than 1092.35 pg/mL, p=0.035): predicted for lack of benefit
benefit from bevacizumab (overall survival) (VEGF-D below Q1, less than 1092.35 pg/mL, p=0.033): predicted for benefit
